Marks after values point to notes of the source that are not given here.
Legend:
[1] = tested on: psoriasis vulgaris model (transplanted psoriasis skin damage); assay: Psoriasis vulgaris model: SCID mice transplanted with patient psoriasis skin, HE histology and Baker scores; type: in vivo
Method: Female and male SCID mice were separately fed for one week, and allowed to adapt growing environment. Patients with psoriasis vulgaris or plaque-type psoriasis were chosen (indentifying the informed consent). […] Aseptic packaging was wrapped up with bandage macerated with normal saline, to prepare for transplantation. According to the body weight of SCID mice, 3% chloral hydrate (0.1 ml/10 g) was administrated, followed by skin preparation and unhair. […] After transplantation of skin, mice were raised in separated cages, and all processes were finished within 2 h. After 10 days, skin damage arounding was injected with PBMC (1×10^6/mouse) provided by transplantation supplier and treated with ConA. After two weeks, exterior packing was dismantled to observe the survival situation of skin and confirm the success of model establishment, and the successful model was used for further experiment. […] The administration was kept for 10 days. […] Skin damage was trimmed into suitable size, dehydrated, embedded, sliced, and stained with HE. […] Baker scores were calculated, and the difference in data of each group was compared. All values were processed using SPSS13.0 software, and the experimental results were presented as x±s. p<0.05 was considered to be a statistical difference. The mean of multi-samples was compared using analysis of variance.

[2] = tested on: cAMP and cGMP in serum; assay: Psoriasis vulgaris model: content and ratio of cAMP and cGMP in serum (ELISA); type: in vivo, SCID mice; conditions: x ± s, n = 10
Text: (§1) Female and male SCID mice were separately fed for one week, and allowed to adapt growing environment. Patients with psoriasis vulgaris or plaque-type psoriasis were chosen (indentifying the informed consent). Dermatochalasis containing 2 cm×2 cm psoriasis skin damage in patients was chosen to make a fusiform incision, and full-thickness of skin was cut and trimmed into free skin graft with a suitable thickness of 0.6 cm×0.6 cm. Aseptic packaging was wrapped up with bandage macerated with normal saline, to prepare for transplantation. According to the body weight of SCID mice, 3% chloral hydrate (0.1 ml/10 g) was administrated, followed by skin preparation and unhair. Epidermis was scissored and cut into fascia layer, and the trimmed skin graft was sutured using 3-0 silk thread and subjected to pressure dressing with cotton ball soaking with normal saline. After transplantation of skin, mice were raised in separated cages, and all processes were finished within 2 h. After 10 days, skin damage arounding was injected with PBMC (1×10^6/mouse) provided by transplantation supplier and treated with ConA. After two weeks, exterior packing was dismantled to observe the survival situation of skin and confirm the success of model establishment, and the successful model was used for further experiment.
The administration was kept for 10 days.
Before sacrificing guinea pigs, blood was taken and centrifuged under 2000r/rain, to collect serum. Using ELISA kit, optical density was detected as instructions in kit. The results were calculated by standard curve, and the ratio of cAMP/cGMP was calculated according to the results.
All values were processed using SPSS13.0 software, and the experimental results were presented as x±s. p<0.05 was considered to be a statistical difference. The mean of multi-samples was compared using analysis of variance.

[3] = tested on: VEGF; assay: Psoriasis vulgaris model: VEGF levels in serum; type: in vivo, SCID mice; conditions: after 10 days administration, x ± s, n = 10
Text: as §1, with “After two weeks, exterior packing was dismantled to observe the survival situation of skin and confirm the success of model establishment, and the successful model was used for further experiment.” left out
Before sacrificing guinea pigs, blood was taken and centrifuged under 2000r/rain, to collect serum. Using ELISA kit, optical density was detected as instructions in kit. The results were calculated by standard curve, and the ratio of cAMP/cGMP was calculated according to the results. […]

[4] = transplanted skin, HE stain, after 10 days administration
[5] = serum, ELISA, after 10 days administration

Structure (SMILES): COc1cc(C)c(/C=C/C(C)=C/C=C/C(C)=C/C(=O)O)c(C)c1C [Positive control, Acitretin A capsule]
- Number of acanthocytes ([1]; 10 days administration, x ± s, n = 10): 27.09 ± 8.83^a
- Monocytes (count) ([1]; surrounding superficial layer blood vessels in dermis, 200 times visual fields, 10 days administration, x ± s, n = 10): 66.40 ± 9.28^a
- Baker scores ([1]; test drugs 100 mg/kg intragastric once a day, positive control 2.25 mg/kg twice a day, 10 days, x ± s, n = 10): 6.39 ± 1.53^a
- degree of parakeratosis under light microscope [1, 4]: middle degree of parakeratosis
- epidermis wooden stick-like hyperplasia [1, 4]: middle degree of wooden stick-like hyperplasia
- monocyte infiltration surrounding blood vessels in dermis [1, 4]: small amounts of monocyte infiltration
- punctiform granular layer [1, 4]: local visible punctiform granular layer and hyperkeratinization
- spinous layer thickness [1, 4]: 24-32 layers
- cAMP/cGMP ([2]; ratio of serum contents): 3.02 ± 0.08^ab
- cAMP in serum [2, 5]: 10.22 ± 0.73^ab pmol/m1
- cGMP in serum [2, 5]: 3.38 ± 0.20^ab pmol/m1
- VEGF levels in serum [3]: 93.40 ± 6.54^ab pg/m1

— patent US20180021395A1, “EUCOMMIA LEAF EXTRACT, AND PREPARATION METHOD AND USE THEREOF” (SICHUAN JIUZHANG BIOLOGICAL SCIENCE AND TECHNOLOGY CO., LTD, priority 2015, published 2018)
